# Species: Rattus norvegicus
# Assay: DrugMatrix - Regimen: Daily Repeat
# Type: toxicity, organism-based, Sprague-Dawley
# Set-up: regimen Daily Repeat, gender Male, age 6-8 weeks
# Settings: in vivo, po, route oral GAVAGE, vehicle 100 % WATER; for ABSOLUTE BASOPHIL / ABSOLUTE EOSINOPHIL / ABSOLUTE LYMPHOCYTE / ABSOLUTE MONOCYTE / ABSOLUTE SEGMENTED NEUTROPHIL / BASOPHIL / EOSINOPHIL / ERYTHROCYTE COUNT / HEMATOCRIT / HEMOGLOBIN / LEUKOCYTE COUNT / LYMPHOCYTE / MEAN CORPUSCULAR HEMOGLOBIN / MEAN CORPUSCULAR HEMOGLOBIN CONCENTRATION / MEAN CORPUSCULAR VOLUME / MONOCYTE / NEUTROPHIL / NUCLEATED RED BLOOD CELLS / PLATELET COUNT: tissue Blood; for ALANINE AMINOTRANSFERASE / ALBUMIN / ALKALINE PHOSPHATASE / ASPARTATE AMINOTRANSFERASE / BLOOD UREA NITROGEN / CARBON DIOXIDE / CHLORIDE / CHOLESTEROL / CREATINE PHOSPHOKINASE / CREATININE / GLUCOSE / LACTATE DEHYDROGENASE / LIPASE / PHOSPHORUS / POTASSIUM / SODIUM / TOTAL BILIRUBIN / TOTAL PROTEIN / URIC ACID: tissue Plasma
# [1] = 0 mg/kg, 72 h, dose level Control, time 3 day
# [2] = 0 mg/kg, 120 h, dose level Control, time 5 day
# [3] = 28 mg/kg, 72 h, dose level Low, time 3 day
compound,measurement,setting,value
CS(=O)(=O)c1ccc([C@@H](O)[C@@H](CO)NC(=O)C(Cl)Cl)cc1 [THIAMPHENICOL],ABSOLUTE BASOPHIL,[1],0 CELLS/uL
same,ABSOLUTE EOSINOPHIL,[1],151.33 CELLS/uL
same,ABSOLUTE LYMPHOCYTE,[1],10599.5 CELLS/uL
same,ABSOLUTE MONOCYTE,[1],109.5 CELLS/uL
same,ABSOLUTE SEGMENTED NEUTROPHIL,[1],1139.67 CELLS/uL
same,BASOPHIL,[1],0%
same,EOSINOPHIL,[1],0.83%
same,ERYTHROCYTE COUNT,[1],5.54 x10E6/uL
same,HEMATOCRIT,[1],35.35%
same,HEMOGLOBIN,[1],13.22 G/DL
same,LEUKOCYTE COUNT,[1],12 x10E3/uL
same,LYMPHOCYTE,[1],89%
same,MEAN CORPUSCULAR HEMOGLOBIN,[1],23.88 pg
same,MEAN CORPUSCULAR HEMOGLOBIN CONCENTRATION,[1],37.4 G/DL
same,MEAN CORPUSCULAR VOLUME,[1],63.85 fL
same,MONOCYTE,[1],1%
same,NEUTROPHIL,[1],9.17%
same,NUCLEATED RED BLOOD CELLS,[1],0 /100WBC
same,PLATELET COUNT,[1],1333.33 x10E3/uL
same,ALANINE AMINOTRANSFERASE,[1],53.17 u/L
same,ALBUMIN,[1],4.32 G/DL
same,ALKALINE PHOSPHATASE,[1],404.33 u/L
same,ASPARTATE AMINOTRANSFERASE,[1],83.17 u/L
same,BLOOD UREA NITROGEN,[1],15.67 mg/dL
same,CARBON DIOXIDE,[1],27.33 mmol/L
same,CHLORIDE,[1],101.83 MEQ/L
same,CHOLESTEROL,[1],68.67 mg/dL
same,CREATINE PHOSPHOKINASE,[1],276.17 u/L
same,CREATININE,[1],0.18 mg/dL
same,GLUCOSE,[1],163.5 mg/dL
same,LACTATE DEHYDROGENASE,[1],144.67 u/L
same,LIPASE,[1],8.83 u/L
same,PHOSPHORUS,[1],11.72 mg/dL
same,POTASSIUM,[1],5.99 MEQ/L
same,SODIUM,[1],143.57 MEQ/L
same,TOTAL BILIRUBIN,[1],0.2 mg/dL
same,TOTAL PROTEIN,[1],6.1 G/DL
same,URIC ACID,[1],1.38 mg/dL
same,ABSOLUTE BASOPHIL,[2],0 CELLS/uL
same,ABSOLUTE EOSINOPHIL,[2],248.67 CELLS/uL
same,ABSOLUTE LYMPHOCYTE,[2],12977.83 CELLS/uL
same,ABSOLUTE MONOCYTE,[2],19.67 CELLS/uL
same,ABSOLUTE SEGMENTED NEUTROPHIL,[2],1137.17 CELLS/uL
same,BASOPHIL,[2],0%
same,EOSINOPHIL,[2],1.67%
same,ERYTHROCYTE COUNT,[2],5.82 x10E6/uL
same,HEMATOCRIT,[2],36.35%
same,HEMOGLOBIN,[2],13.58 G/DL
same,LEUKOCYTE COUNT,[2],14.38 x10E3/uL
same,LYMPHOCYTE,[2],90.5%
same,MEAN CORPUSCULAR HEMOGLOBIN,[2],23.32 pg
same,MEAN CORPUSCULAR HEMOGLOBIN CONCENTRATION,[2],37.42 G/DL
same,MEAN CORPUSCULAR VOLUME,[2],62.42 fL
same,MONOCYTE,[2],0.17%
same,NEUTROPHIL,[2],7.67%
same,NUCLEATED RED BLOOD CELLS,[2],0 /100WBC
same,PLATELET COUNT,[2],1337.67 x10E3/uL
same,ALANINE AMINOTRANSFERASE,[2],48.5 u/L
same,ALBUMIN,[2],4.32 G/DL
same,ALKALINE PHOSPHATASE,[2],354.33 u/L
same,ASPARTATE AMINOTRANSFERASE,[2],80 u/L
same,BLOOD UREA NITROGEN,[2],16 mg/dL
same,CARBON DIOXIDE,[2],27.33 mmol/L
same,CHLORIDE,[2],100.33 MEQ/L
same,CHOLESTEROL,[2],68 mg/dL
same,CREATINE PHOSPHOKINASE,[2],325.17 u/L
same,CREATININE,[2],0.23 mg/dL
same,GLUCOSE,[2],172 mg/dL
same,LACTATE DEHYDROGENASE,[2],254.83 u/L
same,LIPASE,[2],8.33 u/L
same,PHOSPHORUS,[2],12.17 mg/dL
same,POTASSIUM,[2],6.28 MEQ/L
same,SODIUM,[2],143.57 MEQ/L
same,TOTAL BILIRUBIN,[2],0.18 mg/dL
same,TOTAL PROTEIN,[2],6.12 G/DL
same,URIC ACID,[2],1.78 mg/dL
same,ABSOLUTE BASOPHIL,[3],0 CELLS/uL
same,ABSOLUTE EOSINOPHIL,[3],49.67 CELLS/uL
same,ABSOLUTE LYMPHOCYTE,[3],5981.33 CELLS/uL
same,ABSOLUTE MONOCYTE,[3],18.33 CELLS/uL
same,ABSOLUTE SEGMENTED NEUTROPHIL,[3],584 CELLS/uL
same,BASOPHIL,[3],0%
same,EOSINOPHIL,[3],0.67%
same,ERYTHROCYTE COUNT,[3],5.43 x10E6/uL
same,HEMATOCRIT,[3],34.57%
same,HEMOGLOBIN,[3],13.07 G/DL
same,LEUKOCYTE COUNT,[3],6.63 x10E3/uL
same,LYMPHOCYTE,[3],90%
same,MEAN CORPUSCULAR HEMOGLOBIN,[3],24 pg
same,MEAN CORPUSCULAR HEMOGLOBIN CONCENTRATION,[3],37.8 G/DL
same,MEAN CORPUSCULAR VOLUME,[3],63.6 fL
same,MONOCYTE,[3],0.33%
same,NEUTROPHIL,[3],9%
same,NUCLEATED RED BLOOD CELLS,[3],0 /100WBC
same,PLATELET COUNT,[3],1197 x10E3/uL
same,ALANINE AMINOTRANSFERASE,[3],57.33 u/L
same,ALBUMIN,[3],4.33 G/DL
same,ALKALINE PHOSPHATASE,[3],344.67 u/L
same,ASPARTATE AMINOTRANSFERASE,[3],83 u/L
same,BLOOD UREA NITROGEN,[3],16 mg/dL
same,CARBON DIOXIDE,[3],29 mmol/L
same,CHLORIDE,[3],102.33 MEQ/L
same,CHOLESTEROL,[3],74.33 mg/dL
same,CREATINE PHOSPHOKINASE,[3],180 u/L
same,CREATININE,[3],0.21 mg/dL
same,GLUCOSE,[3],145.33 mg/dL
same,LACTATE DEHYDROGENASE,[3],123 u/L
same,LIPASE,[3],8.33 u/L
same,PHOSPHORUS,[3],13.03 mg/dL
same,POTASSIUM,[3],6.66 MEQ/L
same,SODIUM,[3],147.17 MEQ/L
same,TOTAL BILIRUBIN,[3],0.17 mg/dL
same,TOTAL PROTEIN,[3],6.53 G/DL
same,URIC ACID,[3],1.33 mg/dL
